Results on three compounds are retold here after patent US10662195B2, “Protein kinase conjugates and inhibitors” (Celgene Avilomics Research, Inc., priority 2009, dated 2020).

One test deals with FAK (PTK2) (Homo sapiens, UniProt Q05397). Briefly: Mass spectral analysis of intact FAK after incubation with compound. It is filed as binding. As to conditions: 1 hr, 10× excess of compound to protein; for modification of FAK (PTK2) by compound, mass spec: intact protein MALDI. Here is the method:
Intact FAK (PTK2) was incubated for 1 hr at a 10× fold access of compound IV-29 to protein. 3 ul aliquots of the samples were diluted with 10 ul of 0.1% TFA prior to micro C4 ZipTipping directly onto the MALDI target using Sinapinic acid as the desorption matrix (10 mg/ml in 0.1% TFA:Acetonitrile 50:50). Mass spec analysis was run on intact FAK (PTK2) protein (m/z 146,672 Da), and on FAK that was incubated with compound IV-29 (mw=669.2).

In another test the target is T1, FAK (Homo sapiens, UniProt Q05397).
T1 construct: purchased Invitrogen (Madison, Wis.) M4446
Description: FAK biochemical assay (OMNIA kinase assay, pre-activated FAK). As to conditions: FAK=15 nM, ATP=100 μM, 30 min pre-incubation. How it is done:
Activities of FAK inhibitors were assessed in an OMNIA® kinase assay (Invitrogen, Carlsbad, Calif.) using pre-activated FAK enzyme. Briefly, a 10× stock of pre-activated FAK enzyme (M4446) from Invitrogen (Madison, Wis.), 1.13×ATP (AS001A) and Y3-Sox conjugated peptide substrate (YP003A) were prepared in 1× kinase reaction buffer consisting of 20 mM Tris, pH 7.5, 5 mM MgCl2, 1 mM EGTA, 5 mM β-glycerophosphate, 5% glycerol (10× stock, KB002A) and 0.2 mM DTT (DS001A). 5 μL of enzyme were pre-incubated in a Corning (#3574) 384-well, white, non-binding surface microtiter plate (Corning, N.Y.) for 30 min at 27° C. with a 0.5 μL volume of 50% DMSO and serially diluted compounds prepared in 50% DMSO. Kinase reactions were started with the addition of 45 μL of ATP/Y3-Sox peptide substrate mix and monitored every 30-90 seconds for 60 minutes at λex360/λem485 in a Synergy^4 plate reader from BioTek (Winooski, Vt.). […] Initial velocity (0 minutes to ˜30 minutes) from each reaction was determined from the slope of a plot of relative fluorescence units vs time (minutes) and then plotted against inhibitor concentration to estimate IC50 from log [Inhibitor] vs Response, Variable Slope model in GraphPad Prism from GraphPad Software (San Diego, Calif.). […]

Another test relates to CKIT. Description: cKIT washout assay in GIST882 cells (C-kit phosphorylation, western blot). The class given is cell-based. How it is done:
GIST882 cells (See, Bauer et al., Cancer Research, 66(18):9153-9161 (2006)) were seeded in a 6 well plate at a density of 8×10^5 cells/well in complete media. The next day cells were treated with 1 uM compound diluted in complete media for 90 minutes. After 90 minutes, the media was removed and cells were washed with compound-free media. Cells were washed every 2 hours and resuspended in fresh compound-free media. Cells were collected at specified time points, lysed in Cell Extraction Buffer (Invitrogen FNN0011) supplemented with Roche complete protease inhibitor tablets (Roche 11697498001) and phosphatase inhibitors (Roche 04 906 837 001) and lysates were sheared by passing through a 28.5 gauge syringe 10 times each. Protein concentrations were measured and 10 ug total protein lysate was loaded in each lane. C-kit phosphorylation was assayed by western blot with pTyr (4G10) antibody and total kit antibody from Cell Signaling Technology.
Sorafenib and XVIII-11 were tested for cellular activity in a GIST882 cell line at 1 micromolar. The results are depicted in FIGS. 2a and 2b where it is shown that XVIII-11 maintained c-KIT enzyme inhibition in […] cells after “washout” for at least 8 hours. […] In order to understand whether there was a prolonged inhibition with the irreversible inhibitor the cells were washed free of compound. For the reversible inhibitor, Sorafenib, the inhibitory activity of cKIT and downstream signaling was overcome whereas the irreversible inhibition of XVIII-11 persisted for at least 8 hours.
On the technique in general: Immunoblotting shows a protein as a band on a membrane.

In another test the test system is ERK. Briefly: cKIT washout assay, downstream signaling (ERK phosphorylation). It is filed as cell-based. As to conditions: GIST882 cell line, 1 micromolar, 90 minutes. Here is the method:
The next day cells were treated with 1 uM compound diluted in complete media for 90 minutes. After 90 minutes, the media was removed and cells were washed with compound-free media. Cells were washed every 2 hours and resuspended in fresh compound-free media. […] Protein concentrations were measured and 10 ug total protein lysate was loaded in each lane. C-kit phosphorylation was assayed by western blot with pTyr (4G10) antibody and total kit antibody from Cell Signaling Technology.
Sorafenib and XVIII-11 were tested for cellular activity in a GIST882 cell line at 1 micromolar. The results are depicted in FIGS. 2a and 2b where it is shown that XVIII-11 maintained c-KIT enzyme inhibition in […] cells after “washout” for at least 8 hours. […] In order to understand whether there was a prolonged inhibition with the irreversible inhibitor the cells were washed free of compound.

pIC50: −log10 of the molar value.

Sequence of FAK (PTK2) (Q05397 whole entry): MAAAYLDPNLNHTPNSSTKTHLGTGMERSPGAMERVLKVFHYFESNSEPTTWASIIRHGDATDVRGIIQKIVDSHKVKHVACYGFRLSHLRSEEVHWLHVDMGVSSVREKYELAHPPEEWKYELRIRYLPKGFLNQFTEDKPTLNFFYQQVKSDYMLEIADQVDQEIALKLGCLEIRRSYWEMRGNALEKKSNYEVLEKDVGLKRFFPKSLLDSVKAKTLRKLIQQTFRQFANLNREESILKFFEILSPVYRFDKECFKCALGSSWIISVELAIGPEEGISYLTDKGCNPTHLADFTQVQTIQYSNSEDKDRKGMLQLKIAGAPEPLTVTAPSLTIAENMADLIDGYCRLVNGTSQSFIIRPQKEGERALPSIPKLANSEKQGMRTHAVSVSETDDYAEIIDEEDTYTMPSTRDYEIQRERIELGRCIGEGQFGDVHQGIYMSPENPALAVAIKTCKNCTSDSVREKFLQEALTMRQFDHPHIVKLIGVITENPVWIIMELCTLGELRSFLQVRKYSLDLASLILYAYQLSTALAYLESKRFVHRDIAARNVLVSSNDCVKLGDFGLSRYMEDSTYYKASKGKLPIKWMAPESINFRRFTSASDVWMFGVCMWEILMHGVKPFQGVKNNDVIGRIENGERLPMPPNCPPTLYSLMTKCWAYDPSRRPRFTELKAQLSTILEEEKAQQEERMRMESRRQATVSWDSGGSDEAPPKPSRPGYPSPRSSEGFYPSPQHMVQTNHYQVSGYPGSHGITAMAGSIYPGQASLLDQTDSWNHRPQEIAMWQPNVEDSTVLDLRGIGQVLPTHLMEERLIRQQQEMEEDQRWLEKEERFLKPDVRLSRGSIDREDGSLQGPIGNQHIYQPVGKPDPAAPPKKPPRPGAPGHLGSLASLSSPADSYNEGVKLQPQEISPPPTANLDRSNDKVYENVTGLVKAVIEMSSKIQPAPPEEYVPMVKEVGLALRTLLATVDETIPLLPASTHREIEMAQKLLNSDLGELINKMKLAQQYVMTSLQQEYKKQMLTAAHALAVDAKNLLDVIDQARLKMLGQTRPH
T1 sequence (Q05397 whole entry): as above

With `C=CC(=O)Nc1ccc(C(=O)NC2(C)CCN(c3ccc(Nc4ncc(Cl)c(Nc5ccccc5C(=O)NC)n4)c(OC)c3)CC2)cc1` [IV-29, 2-(2-(4-(4-(4-acrylamidobenzamido)-4-methylpiperidin-1-yl)-2-methoxyphenylamino)-5-chloropyrimidin-4-ylamino)-N-methylbenzamide], at FAK (PTK2), the “positive shift of centroid mass of FAK” value is recorded as “about 365 Da” and the “modification of FAK (PTK2) by compound, mass spec” value is “almost complete modification of FAK”. At FAK, the pIC50 – broadly, −log10 of the IC50, conventionally taken in molar units – was 8.28.
As for `C=CC(=O)N1CCC2(CCCN(c3ccc(Nc4ncc(Cl)c(Nc5ccccc5C(=O)NC)n4)c(OC)c3)C2)CC1` [IV-30, 2-{2-[4-(9-Acryloyl-2,9-diaza-spiro[5.5]undec-2-yl)-2-methoxy-phenylamino]-5-chloro-pyrimidin-4-ylamino}-N-methyl-benzamide], the “modification of FAK (PTK2) by compound, mass spec” value at FAK (PTK2) is “did not modify FAK”. Also, the pIC50 on FAK is 8.23.
On to `CNC(=O)c1cc(Oc2ccc(NC(=O)Nc3ccc(Cl)c(C(F)(F)F)c3)cc2)ccn1` [Sorafenib, sorafenib], for which, in the test with CKIT (1 uM for 90 minutes, then washed free of compound), the “inhibitory activity of cKIT and downstream signaling after washout” value was “overcome”. Moreover, the “inhibition of cKIT autophosphorylation” value in the test with CKIT (GIST882 cell line, 1 micromolar, 90 minutes) is on record as “inhibited cKIT autophosphorylation”. Moreover, in the test on ERK, the “inhibition of downstream signaling of ERK” value is on record as “inhibited”.
